# Values of other authors in patent US12279614B2, “Photo-polymerizable, universal antimicrobial coating to produce high-performing, multi-functional face masks” (The Governors of the University of Alberta, priority 2022, dated 2025).
# Tested on: Human Adenovirus Type 8
# Settings: incubation time 1 hr
substance,measurement,value
Benzalkonium chloride,Inactivation efficiency,1.01 log reduction
